From the supplement of paper PMC3974653
Where a name gives a salt, the structure may show the parent alone.

Test system: MTT (mouse pheochromocytoma)
Experiment: IC50 of cell viability (ATP content)
Conditions: (24 or 48 h)
How it was run: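 Each well of a white 1536-well plate received 5 µl of MTT mouse pheochromocytoma cells at 200,000 cells/ml in DMEM containing 5% FBS and 1% horse serum. After overnight culture at 37°C, 5% CO2, cells were exposed for 24 or 48 hrs to 23 nl of library compound in DMSO, pinned at 8 final concentrations from 0.5 nM to 46 µM. CellTiter-Glo luminescence was read after 15 minutes, and IC50 was obtained from a four-parameter logistic fit of signals normalised to positive-control and DMSO wells.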

Row | SMILES | IC50 of cell viability [µM]
1 | CC(/C=C1\SC(=S)N(CC(=O)O)C1=O)=C\c1ccccc1 [Epalrestat] | > 46
2 | C[C@]12CC[C@@H]3c4ccc(O)cc4CC[C@H]3[C@@H]1C[C@H](O)C2O (some centres not stated) [Epiestriol] | > 46
3 | COc1cc(C)nc(-n2nc(C)cc2OC)n1 [Epirizole] | > 46
4 | C[C@@]12CC[C@H]3[C@@H](CC[C@@H]4C[C@H]5S[C@H]5C[C@]43C)[C@H]1CC[C@H]2O [Epitiostanol] | > 46
5 | COC(=O)[C@@H]1CC2=CC(=O)CC[C@]2(C)[C@@]23O[C@@H]2C[C@@]2(C)[C@@H](CC[C@@]24CCC(=O)O4)[C@H]13 [Eplerenone] | > 46
6 | CCC(C)C1OC2(C=CC1C)CC1CC(CC=C(C)C(OC3CC(OC)C(OC4CC(OC)C(NC(C)=O)C(C)O4)C(C)O3)C(C)C=CC=C3COC4C(O)C(C)=CC(C(=O)O1)C34O)O2 (configuration not stated) [Eprinomectin B1a] | > 46
7 | CC(C)(C)NC(=O)[C@H]1CC[C@H]2[C@@H]3CC=C4C=C(C(=O)O)CC[C@@]4(C)[C@H]3CC[C@]12C [Epristeride] | > 46
8 | O=C(NCCCN1CCOCC1)c1ccc(Cl)cc1 [Eprobemida] | > 46
9 | CCCCc1ncc(/C=C(\Cc2cccs2)C(=O)O)n1Cc1ccc(C(=O)O)cc1 [Eprosartan mesylate] | > 46
10 | COc1cc2[nH]c(C)c(CCN3CCN(c4ccccc4)CC3)c2cc1OC [Equipertine hydrochloride] | > 46
11 | O=C(O)CSCC(=O)NC1CCSC1=O (configuration not stated) [Erdosteine] | > 46
12 | CN1C[C@@H](\C=C\2[C@H]1CC3=C[NH]C4=C3C2=CC=C4)C(=O)N[C@]5(C)O[C@@]6(O)[C@@H]7CCCN7C(=O)[C@H](CC8=CC=CC=C8)N6C5=O.CN9C[C@@H](\C=C\%10[C@H]9CC%11=C[NH]C%12=C%11C%10=CC=C%12)C(=O)N[C@]%13(C)O[C@@]%14(O)[C@@H]%15CCCN%15C(=O)[C@H](CC%16=CC=CC=C%16)N%14C%13=O.O[C@H]([C@@H](O)C([O-])=O)C(O)=O [Ergotamine D-tartrate] | > 46
13 | C#Cc1cccc(Nc2ncnc3cc(OCCOC)c(OCCOC)cc23)c1 [Erlotinib] | > 46
14 | CCOC(=O)CCC(=O)OC1C(OC2C(C)C(OC3CC(C)(OC)C(O)C(C)O3)C(C)C(=O)OC(CC)C(C)(O)C(O)C(C)C(=O)C(C)CC2(C)O)OC(C)CC1N(C)C (configuration not stated) [Erythromycin ethyl succinate] | > 46
15 | O=C1OC2(c3ccccc31)c1cc(I)c(O)c(I)c1Oc1c2cc(I)c(O)c1I [Erythrosin B] | > 46
16 | O=C(CN1CCNCC1)NC1CCCCC1 [Esaprazola] | > 46
17 | OC[C@@H]1O[C@@H](OC2=CC\3=C(OC(=O)\C=C3)C=C2O)[C@H](O)[C@H](O)[C@@H]1O [Esculin Hydrate] | > 46
18 | COC(=O)CCc1ccc(OCC(O)CNC(C)C)cc1 (configuration not stated) [Esmolol hydrochloride] | > 46
19 | CCCCCCC(=O)O[C@@H]1CC[C@H]2[C@@H]3CCc4cc(O)ccc4[C@H]3CC[C@]12C [Estradiol enanthate] | > 46
20 | C[C@]12CC[C@H]3c4ccc(O)cc4CC[C@@H]3[C@H]1CC[C@@H]2OP(=O)(O)O [Estradiol phosphate] | > 46
21 | C[C@@]12CC[C@@H]3c4ccc(O[S+](=O)([O-])O)cc4CC[C@H]3[C@H]1CCC2=O [Estropipate] | > 46
22 | CN1CCN(C(=O)O[C@H]2c3nccnc3C(=O)N2c2ccc(Cl)cn2)CC1 [Eszopiclone] | > 46
23 | CCOC(=O)c1cnc2c(cnn2CC)c1NN=C(C)C.Cl [Etazolate hydrochloride] | > 46
24 | CCN(CC)[S+](=O)([O-])c1ccc(C(=O)O)cc1 [Etebenecid] | > 46
25 | C=C(CC)C(=O)c1ccc(OCC(=O)O)c(Cl)c1Cl [Ethacrynic acid] | > 46
26 | CC[C@H](CO)NCCN[C@@H](CC)CO [Ethambutol dihydrochloride] | > 46

Row | SMILES | IC50 of cell viability [µM]
27 | CCN(CC)C(=O)c1ccc(O)c(OC)c1 [Ethamivan] | > 46
28 | CCNCC.O=[S+]([O-])(O)c1cc(O)ccc1O [Ethamsylate] | > 46
29 | NCCO [Ethanolamine] | > 46
30 | CC(=O)c1ccc(OCC(=O)N2CCCCC2)cc1 [Ethanone, 2-(4-acetylphenoxy)-1-(1-piperidinyl)-] | > 46
31 | CCC1Nc2cc(Cl)c([S+](N)(=O)[O-])cc2[S+](=O)([O-])N1 (configuration not stated) [Ethiazide] | > 46
32 | CC[n+]1c(-c2ccccc2)c2cc(N)ccc2c2ccc(N)cc21 [Ethidium bromide] | > 46
33 | CCc1cc(C(N)=S)ccn1 [Ethionamide] | > 46
34 | CCOC(=O)C1(c2ccccc2)CCCN(C)CC1 (configuration not stated) [Ethoheptazine hydrochloride] | > 46
35 | CCCSP(=O)(OCC)SCCC [Ethoprop] | > 46
36 | CCN(CC)[C@@H](C)CN1c2ccccc2Sc2ccccc21 [Ethopropazine hydrochloride] | > 46
37 | CC[C@]1(C)CC(=O)NC1=O [Ethosuximide] | > 46
38 | CCN1C(=O)N[C@@H](c2ccccc2)C1=O [Ethotoin] | > 46
39 | CCOC1=CC\2=C(NC(C)(C)\C=C2C)C=C1 [Ethoxyquin] | > 46
40 | CCOC(C)=O [Ethyl acetate] | > 46
41 | CCOC(=O)c1ccccc1O [Ethyl salicylate] | > 46
42 | OCCOc1ccccc1 [Ethylene glycol monophenyl ether] | > 46
43 | NCCN [Ethylenediamine] | > 46
44 | CCOC(=O)c1ccc(O)cc1 [Ethylparaben] | > 46
45 | CCOc1cc(C=O)ccc1O [Ethylvanillin] | > 46
46 | C#CC1(OC(C)=O)CCC2C3CCC4=CC(OC(C)=O)CCC4C3CCC21C (configuration not stated) [Ethynodiol Diacetate] | > 46
47 | CCc1cc(Cl)c(OC)c(C(=O)NC[C@@H]2CCCN2CC)c1O [Eticlopride hydrochloride] | > 46
48 | CCCN(CC)[C@@H](CC)C(=O)Nc1c(C)cccc1C [Etidocaine] | > 46
49 | CCc1cccc(CC)c1NC(=O)CN(CC(=O)O)CC(=O)O [Etifenin] | > 46
50 | CCNC[C@H](O)c1cccc(O)c1 [Etilefrine hydrochloride] | > 46
51 | CCC(C(N)=O)N1CCCC1=O (configuration not stated) [Etiracetam] | > 46
52 | CCOc1ccc(NC(=S)Nc2ccc(OCC)cc2)cc1 [Etocarlida] | > 46

Row | SMILES | IC50 of cell viability [µM]
53 | CCOC(=O)C(\C#N)=C(/C1=CC=CC=C1)C2=CC=CC=C2 [Etocrylene] | > 46
54 | CCc1cccc2c3c([nH]c12)[C@](CC)(CC(=O)O)OCC3 [Etodolac] | > 46
55 | O=C(OCCOCCO)c1ccccc1Nc1cccc(C(F)(F)F)c1 [Etofenamate] | > 46
56 | CCOC(=O)c1cncn1[C@@H](C)c1ccccc1 [Etomidate] | > 46
57 | COc1cc([C@H]2c3cc4c(cc3[C@@H](O[C@@H]3O[C@H]5CO[C@@H](C)O[C@@H]5[C@@H](O)[C@H]3O)[C@@H]3COC(=O)[C@H]23)OCO4)cc(OC)c1O [Etoposide] | > 46
58 | CC12CCC(CC1)C(C)(C)O2 [Eucalyptol] | > 46
59 | C[C@@H]1C[C@@H](OC(=O)[C@@H](O)c2ccccc2)CC(C)(C)N1C [Eucatropine hydrochloride] | > 46
60 | C=CCc1ccc(O)c(OC)c1 [Eugenol] | > 46
61 | CC(=O)OCC(CCn1cnc2cnc(N)nc21)COC(C)=O [FAMCICLOVIR] | > 46
62 | NC(N)=Nc1nc(CSCC/C(N)=N/[S+](N)(=O)[O-])cs1 [FAMOTIDINE] | > 46
63 | COP(=S)(OC)Oc1ccc([S+](=O)([O-])N(C)C)cc1 [FAMPHUR] | > 46
64 | O=[S+]1([O-])c2cccc3cccc(c23)N1CCCN1CCN(c2ccc(F)cc2)CC1 [FANANSERINUM] | > 46
65 | O=c1[nH]c2cc(C(F)(F)F)c(N3CCOCC3)cc2n(CP(=O)(O)O)c1=O [FANAPANELUM] | > 46
66 | O=C1CC[C@H](C(=O)N2CCCCC2)N1 [FASORACETAM HYDRATE] | > 46
67 | NC(=O)OCC(COC(N)=O)c1ccccc1 [FELBAMATE] | > 46
68 | CCOC(=O)Cc1ccc(-c2ccccc2)cc1 [FELBINAC ETHYL] | > 46
69 | NCCCCC(NC(=O)C1CCCN1C(=O)C1CSSCC(N)C(=O)NC(Cc2ccccc2)C(=O)NC(Cc2ccccc2)C(=O)NC(CCC(N)=O)C(=O)NC(CC(N)=O)C(=O)N1)C(=O)NCC(N)=O (configuration not stated) [FELYPRESSIN] | > 46
70 | Nc1ccc(C(=O)Oc2ccccc2)c(O)c1 [FENAMISAL] | > 46
71 | CC12CCC(C1)C(C)(C)C2=O (configuration not stated) [FENCHONE] | > 46
72 | CCCC[C@H](O)c1ccccc1 [FENIPENTOL] | > 46
73 | Cn1cc(O)nc1NC(=O)Nc1cccc(Cl)c1 [FENOBAMUM] | > 46
74 | Oc1ccc(C2CNCCc3c2cc(O)c(O)c3Cl)cc1 (configuration not stated) [FENOLDOPAM] | > 46
75 | C[N+]1(CCC(C(N)=O)(c2ccccc2)c2ccccc2)CCCCC1 [FENPIVERINII BROMIDUM] | > 46
76 | Cl.O=C1NCC2(CCN(CCc3ccccc3)CC2)O1 [FENSPIRIDE HYDROCHLORIDE] | > 46
77 | Cc1ccc(/C=N/n2c(-c3ccccc3)csc2=S)cc1 [FEZATIONE] | > 46
